# Laboratory results: ChEMBL document CHEMBL1138966 (Bioorg Med Chem Lett, 2006)
# Tests used:
# [1] = molecular target: Human immunodeficiency virus type 1 integrase (Human immunodeficiency virus 1, UniProt Q7ZJM1); assay: Inhibition of strand transfer activity of HIV integrase
# [2] = system: Human immunodeficiency virus 1; assay: Antiviral activity against HIV1 3B in MT4 cells; assay type: functional, organism-based; settings: Human immunodeficiency virus 1, 3B
# MT4 = assay: Cytotoxicity against MT4 cells; assay type: functional; settings: Homo sapiens
# [3] = system: Human immunodeficiency virus 1; assay: Antiviral activity against HIV1 3B in MT2 cells; assay type: functional, organism-based; settings: Human immunodeficiency virus 1, 3B
# [4] = system: Human immunodeficiency virus 1; assay: Antiviral activity against HIV1 3B assessed as protein binding effect in MT2 cells; assay type: functional, organism-based; settings: Human immunodeficiency virus 1, 3B
# physchem = settings: buffer, pH 7.3
# [5] = buffer, pH 7.3
# Sequence of Human immunodeficiency virus type 1 integrase (Q7ZJM1 whole entry): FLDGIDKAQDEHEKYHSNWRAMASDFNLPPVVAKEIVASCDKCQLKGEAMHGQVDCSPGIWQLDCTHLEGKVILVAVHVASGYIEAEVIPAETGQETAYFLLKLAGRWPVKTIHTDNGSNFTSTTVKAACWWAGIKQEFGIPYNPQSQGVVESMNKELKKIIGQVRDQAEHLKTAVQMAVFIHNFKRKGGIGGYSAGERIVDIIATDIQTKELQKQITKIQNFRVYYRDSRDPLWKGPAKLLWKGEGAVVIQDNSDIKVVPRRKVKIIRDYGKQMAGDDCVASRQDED
smiles,measurement,setting,value
COc1c2c(c(O)c3ncccc13)C(=O)N(Cc1ccc(F)cc1)C2,IC50,[1],50 nM
same,EC50,[2],89 nM
same,CC50,MT4,5100 nM
O=C(NCc1ccc(F)cc1)c1ccc2cccnc2c1O,IC50,[1],2000 nM
same,EC50,[2],> 10000 nM
O=C1c2c(c(C(=O)N3CCOCC3)c3cccnc3c2O)CN1Cc1ccc(F)cc1,IC50,[1],36 nM
same,EC50,[3],3.4 nM
same,CC50,MT4,4000 nM
same,EC50,[4],54 nM
same,solubility,physchem,97 µM
CN(C)C(=O)Oc1c2c(c(O)c3ncccc13)C(=O)N(Cc1ccc(F)cc1)C2,IC50,[1],760 nM
same,EC50,[2],3 nM
same,CC50,MT4,1500 nM
O=C(NCc1ccccn1)c1c2c(c(O)c3ncccc13)C(=O)N(Cc1ccc(F)cc1)C2,IC50,[1],190 nM
same,EC50,[3],9.8 nM
same,CC50,MT4,1600 nM
same,EC50,[4],94 nM
same,solubility,physchem,36 µM
CCOC(=O)c1cccc(-c2c3c(c(O)c4ncccc24)C(=O)N(Cc2ccc(F)cc2)C3)c1,IC50,[1],2100 nM
same,EC50,[2],340 nM
same,CC50,MT4,1000 nM
O=C1c2c(cc3cccnc3c2O)CN1Cc1ccc(F)cc1,IC50,[1],70 nM
same,IC50,[2],100 nM
CN(C)C(=O)Oc1c2c(c(O)c3ncccc13)C(=O)N(Cc1ccc(F)cc1)C2=O,IC50,[1],2400 nM
same,IC50,[2],1180 nM
same,CC50,MT4,22000 nM
same,solubility,physchem,2.5 µM
COc1c2c(c(O)c3ncccc13)C(=O)N(Cc1ccc(F)cc1)C2=O,IC50,[1],80 nM
same,EC50,[2],7500 nM
same,CC50,MT4,19000 nM
same,solubility,physchem,< 1.4 µM
CCOc1ccc(-c2c3c(c(O)c4ncccc24)C(=O)N(Cc2ccc(F)cc2)C3)cc1,IC50,[1],1200 nM
same,EC50,[2],780 nM
same,CC50,MT4,1000 nM
CCOC(=O)c1ccccc1-c1c2c(c(O)c3ncccc13)C(=O)N(Cc1ccc(F)cc1)C2,IC50,[1],350 nM
same,EC50,[2],70 nM
same,CC50,MT4,400 nM
O=C1c2c(c(-c3c(F)cccc3F)c3cccnc3c2O)CN1Cc1ccc(F)cc1,IC50,[1],335 nM
same,EC50,[2],11 nM
same,CC50,MT4,300 nM
O=C(NCc1ccc(F)cc1)c1nc(N2CCCCS2(=O)=O)c2cccnc2c1O,IC50,[1],50 nM
same,EC50,[3],3.8 nM
same,CC50,MT4,1500 nM
same,EC50,[4],88 nM
same,solubility,[5],7.2 µM
